Assay results as given in patent US12616754B2, “Composition for delivery of a bioactive agent and method of manufacture and use thereof” (priority 2020, dated 2026).

How the values were obtained:
Test in all cases: Cell viability WST-8 assay
Format in all cases: cell-based
[1] = tested on: A549 lung adenocarcinoma cells; details: A549, 24 h
Experimental: (§1) A549, BEAS-2B, H1299 and LL2 cells were cultured in 96-well plates at a density of 1×10^4 cells/well in DMEM supplemented with 2.0 mM L-glutamine, 50 μg/mL gentamicin, and 10% (v/v) fetal bovine serum at 37° C. in 5% CO2. Cells were then treated with various concentrations of free DOX, DNA NGs, and DNA-DOX NGs. After 24 h incubation, cell proliferation was evaluated using a WST-8 reagent (Dojindo Molecular Laboratories, Japan). After transferring the supernatant to 96-well plates, the supernatant was measured on a VersaMax Microplate Reader (Molecular Devices, Sunnyvale, CA, USA) at the wavelength of 405 nm. Cell viability was determined using the following equation: cell viability (%)=[(Abs405 nm in the treated sample cells−Abs405 nm in blank)/(Abs405 nm in untreated control cells−Abs405 nm in blank)]×100, wherein Abs405 nm refers to absorbance at 405 nm.

[2] = tested on: LL2 Lewis lung carcinoma cells; details: LL2, 24 h
Experimental: as §1

[3] = tested on: H1299 non-small cell lung carcinoma cells; details: H1299, 24 h
Experimental: as §1

[4] = tested on: BEAS-2B bronchial epithelial cells; details: 24 h
Experimental: as §1

In the case of COc1cccc2c1C(=O)c1c(O)c3c(c(O)c1C2=O)C[C@@](O)(C(=O)CO)C[C@@H]3O[C@H]1C[C@H](N)[C@H](O)[C@H](C)O1.Cl [Free DOX, doxorubicin hydrochloride], the IC50 [1] is reported as 2.92 µg/mL, the IC50 [2] is reported as 2.33 µg/mL and the IC50 [3] is reported as 18.9 µg/mL. The IC50 [4] was 5.11 µg/mL.
